US7361643B2, “Methods for inhibiting angiogenesis” (University of Puerto Rico, priority 2000, dated 2008)

Tests used:
[1] = system: tunicamycin sensitive clone JMEC; assay: Apoptosis and recovery in the tunicamycin sensitive cell clone; format: cell-based, bovine
Source text: To understand the precise molecular mechanism of tunicamycin induced apoptosis of capillary endothelial cells, a cell clone was isolated from the parental culture that was maintained in a serum-free media for six weeks following synchronization. The morphology of these cells and their growth profile appear quite different. For example, the shapes are more spindle-like, resembling Kaposi's Sarcoma lesions endothelial cells, as disclosed in FIORELLI et al., “Cytokines from Activated T Cells Induce Normal Endothelial Cells to Acquire the Phenotypic and Functional Features of AIDS-Kaposi's Sarcoma Spindle Cells”, J. Clin. Invest., 95:1723-1734 (1995), the disclosure of which is herein incorporated by reference in its entirety. The cells undergo two-population doubling in 2% (v/v) fetal bovine serum, differentiate in 5 days, and complete one cell cycle in approximately 56 hours (FIG. 4).
There was no recovery after exposing the cells to 1 μg/ml-10 μg/ml tunicamycin for 72 hours or more (not all data shown).

[2] = system: bovine adrenal medullary microvascular endothelial cells; assay: Cell cycle and apoptosis by flow cytometry (propidium iodide); format: cell-based
Procedure: Regarding flow cytometry, assessment of the cell cycle was determined by propidium iodide staining of fixed cell nuclei followed by flow cytometry in a FacSort (Beckton Dickinson) according to the method of Krishan (1975) as modified by Vindelov (1977), as discussed in KRISHAN, “Rapid Flow Cytofluorometric Analysis of Mammalian Cell Cycle by Propidium Iodide Staining”, J. Cell Biol., 66:188-193 (1975); and VINDELOV, “Flow Cytometric Analysis of Nuclear DNA in Cells from Solid Tumors and Cell Suspensions”, Virchows Arch (B), 24:227-231(1977), the disclosures of which are herein incorporated by reference in their entireties. Briefly, cells were trypsinized, and pelleted by centrifugation at 900 rpm in a bench top centrifuge (Sorvall T6000B). After washing twice with PBS the cell pellet was resuspended in propidium iodide-buffer (PI-buffer; 10 mM Tris-HCl, pH 8.0 containing 10 mM NaCl, 0.7 μM PI, 700 units/liter RNase, and 0.1% (v/v) NP-40), kept in ice for 30 minutes and then fixed with 2% (v/v) paraformaldehyde. After FacSort calibration, 3000 events were counted per sample. Acquisition and analysis of data were carried out by using Cell Quest flow cytometry software (Macintosh-based). Gates: M1=G0/G1, M2=S, M3=G2+M, M4=apoptosis.
Proliferation and Differentiation of Capillary Endothelial Cells: 2.0×10^4 cells were seeded per well in 24-well clusters in 1 ml complete EMEM containing 10% (v/v) serum and allowed to grow for 72 hours. Media were removed and the cells were washed twice with phosphate-buffer saline, pH 7.4 (PBS). Cells were synchronized by incubating for 48 hours in 2 mM hydroxyurea in serum-free EMEM with glutamine (2 mM) and one-third of penicillin-streptomycin used in a regular culture condition, followed by incubating 24 hours in serum-free EMEM, as discussed in CAO et al., “Modified Method of Mammalian Cell Synchronization Improves Yield and Degree of Synchronization”, Exp. Cell Res., 193:405-410 (1991), the disclosure of which is herein incorporated by reference in its entirety. Cells were routinely monitored by light microscopy. For proliferation assay, cells were trypsinized and counted in a hemacytometer. Viability of cells was determined by trypan blue (0.4% (v/v)) exclusion. Statistical analysis was carried out by StatView II software (Macintosh). Quantitation of cellular differentiation was carried out by observing under a Nikon AlphaShot inverted microscope, and counting the number of capillary lumen-like structures in five randomly selected fields per sample. The results were expressed as percent of its corresponding control after normalization of cell numbers. Analysis of Cell Cycle by Flow Cytometry: Assessment of the cell cycle was determined by propidium iodide staining of fixed cell nuclei followed by flow cytometry in a FacSort (Beckton Dickinson) according to the method of Krishan (1975) as modified by Vindelov (1977), as discussed in KRISHAN, “Rapid Flow Cytometric Analysis of Mammalian Cell Cycle by Propidium Iodide Staining”, J. Cell Biol. 66:188-195 (1975); and VINDELOV, “Flow Cytometric Analysis of Nuclear DNA in Cells from Solid Tumors and Cell Suspensions”, Virchows Arch (B), 24:227-231 (1977), the disclosures of which are herein incorporated by reference in their entireties. Briefly, cells were trypsinized, and pelleted by centrifugation at 900 rpm in a bench top centrifuge (Sorvall T6000B). After washing twice with PBS the cell pellet was resuspended in propidium iodide-buffer (PI-buffer; 10 mM Tris-HCl, pH 8.0 containing 10 mM NaCl, 0.7 μM PI, 700 units/liter RNase, and 0.1% (v/v) NP-40), kept in ice for 30 minutes and then fixed with 2% (v/v) paraformaldehyde. After FacSort calibration, 3000 events were counted per sample. Acquisition and analysis of data were carried out by using Cell Quest flow cytometry software (Macintosh-based). Gates: M1 G0/G1, M2=S, M3=G2+M, M4=apoptosis.

[3] = system: protein N-glycosylation; conditions: control cells and isoproterenol-treated cells, BANERJEE et al. (1993); cited from earlier work

tunicamycin
concentration for apoptosis less than needed for parental cells ([1]; 10 ng/ml in clone versus parental cells): 100 fold
cells recovered in 5 days ([1]; 10 ng/ml tunicamycin for 24 hours): approximately 60%
apoptosis of the sensitive clone ([1]; 10 ng/ml tunicamycin, 32 hours): undergoes apoptosis
cells recovered in 5 days ([1]; 1 μg/ml tunicamycin for 48 hours): recovered similarly
recovery of cells ([1]; 1 μg/ml-10 μg/ml tunicamycin for 72 hours or more): no recovery
cells recovered ([1]; 10 μg/ml tunicamycin for 48 hours): less than 20%
completion of the cell cycle ([2]; 1 μg/ml tunicamycin): never completed the cell cycle
cell population entered into apoptosis ([2]; 1 μg/ml tunicamycin, 32 hours exposure, synchronized cells, EMEM 2% (v/v) FBS): ~70%
apoptosis by flow cytometric analysis (in words) ([2]; in the presence of tunicamycin): underwent apoptosis
glycosylation [3]: reduced glycosylation
